Measurements taken from patent US20220264883A1, “IMIDAZOTHIAZOLE COMPOUNDS AND METHODS FOR TREATING PLANT NEMATODE INFECTIONS” (The Governing Council of the University of Toronto, priority 2019, published 2022).
Several values for one entry are separate records, joined by “and”; a condition that tells them apart may be missing. Equal values may be shown once.

Tests used:
C. elegans [1] = test: C. elegans viability at a single concentration (Table 3); assay type: in vivo; conditions: Caenorhabditis elegans; 50 μM (compound If)
Protocol: (§1) Forty microliters of an HB101 bacterial suspension in liquid NGM (see above) was added to each well of a 96-well flat-bottom culture plate, after which approximately 25 synchronized L1 worms, in 10 μl of M9 buffer (see ref. 59 for the recipe), were added to each well. The synchronized L1 worms were obtained from an embryo preparation performed the previous day (see ref. 59 for the protocol). For the L1 assays, 0.5 μl of chemical solution (or DMSO alone) was immediately added to the wells using a multichannel pipette, the final DMSO concentration is 1% (v/v). The worms were incubated for 3 days at 20° C. and the number of viable animals was counted. […] Although the counts were performed after 3 days of incubation in the chemical, it was noted that the L1s were dead within 24 hours of the addition of the chemicals. For the L2/L3 assays, the worms were incubated in the absence of chemical for 1 day at 20° C. until they reached the L2/L3 stage, at which point chemical was added as described above. The worms were then allowed to incubate for 2 days at 20° C. and the number of viable animals was counted as described for the L1 assay. For the L4 assays, the worms were incubated for 2 days at 20° C. before the addition of chemicals. The L4-stage worms were then incubated in chemical for an additional day before quantifying the number of viable animals. The adult assays were performed the same way as the L4 assays, however HT115 E. coli carrying the empty dsRNA expressing vector L4440 was used in place of HB101 and the worms were cultured at 25° C. as opposed to 20° C. for the entirety of the experiment. The HT115 suspension was made by concentrating a bacterial culture, with an OD600 of ˜ 0.8, five-fold with liquid NGM containing 1 mM IPTG and 100 μg/ml carbenicillin. The HT115 cells were induced with 1 mM IPTG for one hour before concentrating with NGM.
(§2) The ability of exemplary compounds of the application to kill C. elegans at 100 μM (except for compound If which was tested at 50 μM) and to affect the mobility of M. chitwoodi at 45 μM was tested as described above for M. incognita infective juveniles. Percent mobility was measured after 2 days of chronic exposure to test compounds (Table 3).

M. chitwoodi [2] = test: Root-knot nematode M. chitwoodi mobility (Table 3); assay type: in vivo, Meloidogyne chitwoodi; conditions: 45 μM, 2 days of chronic exposure
Protocol: (§3) M. incognita (Kofoid & White) Chitwood Race 1 (originally isolated in Maryland) was used for all experiments, and was maintained on pepper (Capsicum annuum L.) cv. PA-136 in a greenhouse as previously described^64. Infective J2 juveniles were collected as described in ref.65. The microwell dose-response experiments were carried out similarly to previously described protocols^64, 66. In brief, 100 J2s, in 10 μL of deionized water, were added to the wells of 96-well polystyrene plates, after which 190 μL of deionized water containing dissolved chemical, or DMSO alone, was added to each well. The chemicals were tested at 45 μM, and the final concentration of DMSO in each well was 0.5% (v/v). The wells were covered with a plastic adhesive strip, and the lids of the plates were sealed with parafilm. The plates were incubated at 25° C. The mobile fraction of worms was quantified by counting the number of mobile and immobile worms after 2 days of incubation, and then dividing the number of mobile worms by the total number of worms in the well. Three technical replicates were performed for each treatment, and an average value for the mobile fraction of worms was calculated across the three replicates. The percent effectiveness at inhibiting nematode movement was calculated by dividing the average value for the chemical treatment by the average value for the DMSO control, then subtracting this value from 1, and then multiplying by 100.
M. chitwoodi race 1 (the strain commonly found in the pacific northwest of the United States) was used for all experiments, and was maintained on tomato plants (Solanum lycopersicum ‘Rutgers’) as previously described^73. The M. chitwoodi in vitro assays were performed identically to the M. incognita in vitro assays (see above).
as §2

C. elegans [3] = test: C. elegans minimum lethal concentration dose-response; assay type: in vivo, Caenorhabditis elegans; conditions: Caenorhabditis elegans, C. elegans viability
Protocol: as §1
Compounds Ia to Im, dose-response assays were performed with C. elegans. 8 of the compounds killed C. elegans with minimum lethal concentrations less than or equal to 100 μM (Table 6). Compounds Ia, Ic, and Ij were the most potently lethal nematicides in this assay, having minimum lethal concentrations of 6.25 μM and below. The positive control nematicide tioxazafen killed nematodes at 3.13 μM and above.

M. incognita J2 larvae = test: Meloidogyne incognita in vitro assays (J2 movement); assay type: in vivo; conditions: 45 μM, 2 days, relative to DMSO control
Protocol: as §3

M. chitwoodi [4] = test: Meloidogyne chitwoodi infectivity assays (tomato roots in soil); assay type: in vivo; conditions: 45 μM in soil, 8 weeks, egg counts relative to DMSO control
Protocol: An M. incognita population originally collected from grape (Vitis vinifera) in Parlier, Calif., was used for all experiments, and they were maintained on tomato plants (Solanum lycopersicum ‘Rutgers’) as previously described^73. Infective J2 juveniles were collected as described in^73. For the infectivity assays, 90 grams of soil (1:1 sand:loam mix) was added to each cell of several 6-cell plastic garden packs. The soil was drenched with 18 mL of deionized water containing dissolved chemical or DMSO alone. 2,500 infective J2 juveniles were then added to the soil in 2 mL of deionized water, for a total water volume of 20 mL. The final concentration of the chemicals in water was 45 μM. The DMSO concentration varied from 0.1% to 0.8% (v/v) depending on the stock concentration of the chemical. The highest DMSO concentration was used as the DMSO control. The J2s were incubated in the soil and chemical for 24 hours, after which two- to three-week old tomato seedlings were transplanted into the soil (one plant per cell). […] The number of eggs from each plant root was counted on a dissection microscope using a haemocytometer, and the number of eggs per milligram of root was calculated by dividing the total egg number by the mass of the dried root material. […] An average percent effectiveness value was then calculated across the two different batches carried out on different days. […]

tomato plants = test: Root mass of tomato plants in the infectivity assays; assay type: in vivo, Solanum lycopersicum; conditions: 45 μM
Protocol: An M. incognita population originally collected from grape (Vitis vinifera) in Parlier, Calif., was used for all experiments, and they were maintained on tomato plants (Solanum lycopersicum ‘Rutgers’) as previously described^73. Infective J2 juveniles were collected as described in^73. For the infectivity assays, 90 grams of soil (1:1 sand:loam mix) was added to each cell of several 6-cell plastic garden packs. The soil was drenched with 18 mL of deionized water containing dissolved chemical or DMSO alone. 2,500 infective J2 juveniles were then added to the soil in 2 mL of deionized water, for a total water volume of 20 mL. The final concentration of the chemicals in water was 45 μM. The DMSO concentration varied from 0.1% to 0.8% (v/v) depending on the stock concentration of the chemical. The highest DMSO concentration was used as the DMSO control. The J2s were incubated in the soil and chemical for 24 hours, after which two- to three-week old tomato seedlings were transplanted into the soil (one plant per cell). Two replicates were performed for each chemical treatment, and four replicates were done for the DMSO controls. The whole experiment was replicated twice, in two different batches on two different days, for a total of four replicates for each chemical treatment, and eight replicates for the DMSO controls. Inoculated plants were grown for 8 weeks in a greenhouse, as described^73, under long-day conditions (16-h photoperiod) with 26/18° C. day/night temperatures. After 8 weeks, the plants were destructively harvested. The tops were removed and discarded, and roots were gently washed with water to remove adhering soil. Eggs were extracted by placing rinsed roots in 0.6% sodium hypochlorite and agitating at 300 rpm for 3 min. Roots were then rinsed over nested 250- and 25.4-μm sieves, with eggs collected from the latter and suspended in water. Roots were dried in a 65° C. oven for at least 24 hours, after which dry roots were weighed. The number of eggs from each plant root was counted on a dissection microscope using a haemocytometer, and the number of eggs per milligram of root was calculated by dividing the total egg number by the mass of the dried root material. An average was taken across the replicates performed on the same day, and then normalized to the DMSO control average. To calculate percent effectiveness at inhibiting reproduction, the normalized values were subtracted from 1, and then multiplied by 100. An average percent effectiveness value was then calculated across the two different batches carried out on different days.

In the case of `Cc1csc2nc(-c3ccc(Cl)cc3)cn12` [Compound If], the viability at 50 µM (C. elegans [1]) is reported as 19.8%, the RKN mobility (M. chitwoodi [2]) is reported as 0.6% and the minimal effective concentration (C. elegans [3]) is reported as 25 µM and 6.2 µg/mL. For the same compound, the “% effectiveness at reducing M. incognita movement” value (M. incognita J2 larvae) was 3.5%, the “% effectiveness at inhibiting reproduction of M. chitwoodi” value (M. chitwoodi [4]) was 46.2% and the “Normalized root mass (relative to DMSO control)” value (tomato plants) was 1.3.
